Columns and labels:
Experiment in all cases: relative viability (nuclei count vs DMSO), 5 days (fraction); higher = more cells survive
[1] = compound: CN1CCN(CC1)C2=CC(=C(C=C2)NC3=NC(=C(S3)C(=O)C4=C(C=CC=C4Cl)Cl)N)OC [XMD14-99] + CCNC(=O)c1noc(-c2cc(C(C)C)c(O)cc2O)c1-c1ccc(CN2CCOCC2)cc1 [Luminespib] (partner 0.01 µM)
Outline: (§1)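 Dosing by pin tool came one day after lung cancer cell lines were seeded in 1536-well plates, using either one drug or a fixed anchor-drug dose plus five library-drug doses (not always all listed) in √10 steps. After 5 days, nuclei were counted on 4× images. Relative viability is treated-well nuclei count divided by vehicle-well nuclei count, and values are medians of duplicate plates.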

[2] = compound: CN1CCN(CC1)C2=CC(=C(C=C2)NC3=NC(=C(S3)C(=O)C4=C(C=CC=C4Cl)Cl)N)OC [XMD14-99] + N=C(N)NC(=N)NCCc1ccccc1 [Phenformin] (partner 250 µM)
Outline: as §1

[3] = compound: N[C@@H]1CCCN(c2c(/C=C3\SC(=O)NC3=O)cccc2-c2ccccc2)C1 [AZD1208] + CCNC(=O)c1noc(-c2cc(C(C)C)c(O)cc2O)c1-c1ccc(CN2CCOCC2)cc1 [Luminespib] (partner 0.01 µM)
Outline: as §1

[4] = compound: N[C@@H]1CCCN(c2c(/C=C3\SC(=O)NC3=O)cccc2-c2ccccc2)C1 [AZD1208] + N=C(N)NC(=N)NCCc1ccccc1 [Phenformin] (partner 250 µM)
Outline: as §1

UMC-11
relative viability ([1]; first compound 0.08 µM): 0.98 | relative viability ([1]; first compound 0.8 µM): 1.05 | relative viability ([1]; first compound 2.53 µM): 0.98 | relative viability ([1]; first compound 8 µM): 0.828 | relative viability ([2]; first compound 0.08 µM): 0.336 | relative viability ([2]; first compound 0.8 µM): 0.314 | relative viability ([2]; first compound 2.53 µM): 0.319 | relative viability ([2]; first compound 8 µM): 0.275 | relative viability ([3]; first compound 0.08 µM): 0.816 | relative viability ([3]; first compound 0.253 µM): 0.894 | relative viability ([3]; first compound 0.8 µM): 0.62 | relative viability ([3]; first compound 2.53 µM): 0.664 | relative viability ([3]; first compound 8 µM): 0.406 | relative viability ([4]; first compound 0.08 µM): 0.312 | relative viability ([4]; first compound 0.253 µM): 0.355 | relative viability ([4]; first compound 0.8 µM): 0.339 | relative viability ([4]; first compound 2.53 µM): 0.388 | relative viability ([4]; first compound 8 µM): 0.306
